Patent EP4745137A1 (Gluetacs Therapeutics (Shanghai) Co., Ltd., priority 2023, dated 2025)

Tests used:
[1] = target: T1, human Cereblon WT GST-tagged protein (Homo sapiens, UniProt Q96SW2); test: CRBN-binding affinity by HTRF (CEREBLON BINDING kit); details: HTRF inhibitory activity, CEREBLON BINDING kit; read-out: HTRF IC50
T1 construct: purchased CISBIO 64BDCRBNPEH

[2] = target: T2, CK1α (Homo sapiens, UniProt P48729+Q96SW2); test: Western-blot assay of substrate protein degradation in hPBMCs, CK1α; assay type: cell-based; details: 24 hours of compound treatment, compounds tested at 50 nM and 500 nM (concentration of the table not stated)
T2 construct: endogenous in cells; host or cells: hPBMCs (Milecell Biotechnologies)
T2 sequence (P48729 whole entry): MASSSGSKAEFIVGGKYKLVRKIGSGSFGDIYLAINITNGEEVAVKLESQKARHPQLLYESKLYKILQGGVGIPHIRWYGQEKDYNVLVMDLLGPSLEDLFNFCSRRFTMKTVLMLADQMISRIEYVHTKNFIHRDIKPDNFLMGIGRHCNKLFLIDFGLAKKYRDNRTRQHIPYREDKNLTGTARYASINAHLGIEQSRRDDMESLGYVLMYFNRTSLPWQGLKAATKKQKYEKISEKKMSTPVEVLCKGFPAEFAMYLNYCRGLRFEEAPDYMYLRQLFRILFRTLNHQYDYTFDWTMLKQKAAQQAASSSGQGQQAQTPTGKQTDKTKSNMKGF
T2 sequence (Q96SW2 whole entry): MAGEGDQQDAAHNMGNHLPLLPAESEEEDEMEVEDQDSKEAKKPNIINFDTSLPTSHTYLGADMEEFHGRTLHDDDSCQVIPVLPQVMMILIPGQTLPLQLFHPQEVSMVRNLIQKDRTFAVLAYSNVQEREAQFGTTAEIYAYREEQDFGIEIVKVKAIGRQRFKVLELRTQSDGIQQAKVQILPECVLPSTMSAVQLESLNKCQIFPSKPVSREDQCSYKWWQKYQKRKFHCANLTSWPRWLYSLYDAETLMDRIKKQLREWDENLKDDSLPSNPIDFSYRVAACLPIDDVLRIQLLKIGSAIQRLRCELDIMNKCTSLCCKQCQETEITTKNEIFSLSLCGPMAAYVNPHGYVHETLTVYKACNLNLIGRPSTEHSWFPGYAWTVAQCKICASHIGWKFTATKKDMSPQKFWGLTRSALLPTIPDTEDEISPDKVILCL
T2 sequence (Q16531 whole entry partner): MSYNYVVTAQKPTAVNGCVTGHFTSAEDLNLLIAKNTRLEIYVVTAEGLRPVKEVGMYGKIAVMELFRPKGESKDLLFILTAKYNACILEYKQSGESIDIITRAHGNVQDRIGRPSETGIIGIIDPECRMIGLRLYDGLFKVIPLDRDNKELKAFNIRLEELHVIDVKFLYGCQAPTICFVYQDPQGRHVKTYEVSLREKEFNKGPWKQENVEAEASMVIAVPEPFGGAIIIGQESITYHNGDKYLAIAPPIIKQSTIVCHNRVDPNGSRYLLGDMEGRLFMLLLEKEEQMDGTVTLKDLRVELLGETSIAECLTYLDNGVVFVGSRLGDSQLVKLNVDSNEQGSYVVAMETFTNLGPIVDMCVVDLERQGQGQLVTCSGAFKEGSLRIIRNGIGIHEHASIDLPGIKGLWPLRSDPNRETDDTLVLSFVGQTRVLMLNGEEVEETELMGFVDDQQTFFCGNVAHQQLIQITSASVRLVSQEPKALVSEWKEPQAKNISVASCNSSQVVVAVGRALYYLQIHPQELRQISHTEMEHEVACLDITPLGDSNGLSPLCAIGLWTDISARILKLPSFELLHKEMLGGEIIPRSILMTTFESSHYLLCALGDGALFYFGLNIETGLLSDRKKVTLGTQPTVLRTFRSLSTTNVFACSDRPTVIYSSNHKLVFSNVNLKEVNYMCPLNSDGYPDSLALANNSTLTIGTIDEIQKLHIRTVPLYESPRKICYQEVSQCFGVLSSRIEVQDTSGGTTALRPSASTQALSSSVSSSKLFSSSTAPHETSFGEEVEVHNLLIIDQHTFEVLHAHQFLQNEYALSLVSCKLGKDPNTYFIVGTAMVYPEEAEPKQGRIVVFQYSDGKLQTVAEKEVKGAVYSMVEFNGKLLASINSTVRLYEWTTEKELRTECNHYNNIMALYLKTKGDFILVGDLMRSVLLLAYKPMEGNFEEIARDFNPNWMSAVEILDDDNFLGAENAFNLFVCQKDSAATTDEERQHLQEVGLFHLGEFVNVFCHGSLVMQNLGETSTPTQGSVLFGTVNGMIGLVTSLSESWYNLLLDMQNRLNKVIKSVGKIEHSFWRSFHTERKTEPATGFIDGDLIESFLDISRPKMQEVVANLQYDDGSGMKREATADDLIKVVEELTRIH

[3] = tested on: MM.1S; test: Tumor cell proliferation inhibition (CellTiter-Meiluncell Luminescent Cell Viability Assay), MM.1S; details: Homo sapiens, MM1.S, read-out: inhibitory activity (IC50, nM) against tumor cells proliferation, MM.1S
Experimental: The tumor cells used herein were cultured in a cell culture medium listed in table 2 at 37°C in an incubator with 5% CO2. Prior to experimentation, all cell lines used were correctly identified by STR profiling, and tested negative for mycoplasma contamination using a mycoplasma detection kit through routine screenings.
On the following day, the test compounds of the present disclosure were subjected to serial dilution. […] Subsequently, 0.5 µL of the test compound dilution was transferred into the 96-well plate containing the cells, with each well containing 100 µL of cell culture medium. […] Into the 96-well plate, the diluted test compounds and corresponding detection reagents were added, resulting in final test compound concentrations of 500 nM and 10 nM, respectively.
After the cells were treated with the compounds of the present disclosure for a specified period (the treatment durations were shown in Table 3), the cell viability assay reagent was added to the culture medium according to the kit's instructions to determine cell viability. […] All controls were treated using the same procedure as the compounds of the present disclosure. The growth inhibition curves for the compounds of the present disclosure were plotted using Prism GraphPad software, and the IC50 values were calculated therefrom.

[4] = target: T3, GSPT1 (Homo sapiens, UniProt P15170+Q96SW2); test: Western-blot assay of substrate protein degradation in hPBMCs, GSPT1; assay type: cell-based; details: 24 hours of compound treatment, compounds tested at 50 nM and 500 nM (concentration of the table not stated)
T3 construct: endogenous in cells; host or cells: hPBMCs (Milecell Biotechnologies)
T3 sequence (P15170 whole entry): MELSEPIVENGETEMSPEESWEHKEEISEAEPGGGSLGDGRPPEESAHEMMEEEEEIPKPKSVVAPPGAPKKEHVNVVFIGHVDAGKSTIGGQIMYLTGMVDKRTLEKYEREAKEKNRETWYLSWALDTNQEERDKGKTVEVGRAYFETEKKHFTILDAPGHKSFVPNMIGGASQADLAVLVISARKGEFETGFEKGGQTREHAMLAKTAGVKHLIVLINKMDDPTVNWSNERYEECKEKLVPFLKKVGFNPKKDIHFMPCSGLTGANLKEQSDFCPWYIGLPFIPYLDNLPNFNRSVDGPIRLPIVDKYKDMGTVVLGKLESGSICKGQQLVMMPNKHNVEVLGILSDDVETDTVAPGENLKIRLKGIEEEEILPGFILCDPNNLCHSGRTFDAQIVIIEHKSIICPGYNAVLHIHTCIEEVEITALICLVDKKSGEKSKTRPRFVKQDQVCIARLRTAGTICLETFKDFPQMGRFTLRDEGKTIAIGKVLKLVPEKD
T3 sequence (Q96SW2 whole entry): as the sequence (Q96SW2 whole entry) above
T3 sequence (Q16531 whole entry partner): as the sequence (Q16531 whole entry partner) above

[5] = target: T4, IKZF3 (Homo sapiens, UniProt Q96SW2+Q9UKT9); test: Western-blot assay of substrate protein degradation in hPBMCs, IKZF3; assay type: cell-based; details: 24 hours of compound treatment, compounds tested at 50 nM and 500 nM (concentration of the table not stated)
T4 construct: endogenous in cells; host or cells: hPBMCs (Milecell Biotechnologies)
T4 sequence (Q9UKT9 whole entry): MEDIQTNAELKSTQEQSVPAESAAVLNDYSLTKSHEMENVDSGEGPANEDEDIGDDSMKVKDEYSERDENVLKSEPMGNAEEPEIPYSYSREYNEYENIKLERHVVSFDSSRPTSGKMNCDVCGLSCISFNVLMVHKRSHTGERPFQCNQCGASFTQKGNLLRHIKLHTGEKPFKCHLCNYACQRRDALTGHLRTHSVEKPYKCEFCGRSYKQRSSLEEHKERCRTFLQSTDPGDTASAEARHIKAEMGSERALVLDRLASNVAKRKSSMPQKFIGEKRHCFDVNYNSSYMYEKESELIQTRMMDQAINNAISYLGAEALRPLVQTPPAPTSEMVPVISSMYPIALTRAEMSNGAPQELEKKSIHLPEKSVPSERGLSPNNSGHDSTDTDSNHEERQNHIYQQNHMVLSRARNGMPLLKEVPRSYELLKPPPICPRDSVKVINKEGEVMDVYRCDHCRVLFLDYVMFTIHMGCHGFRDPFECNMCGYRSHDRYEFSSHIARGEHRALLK
T4 sequence (Q96SW2 whole entry): as the sequence (Q96SW2 whole entry) above
T4 sequence (Q16531 whole entry partner): as the sequence (Q16531 whole entry partner) above

[6] = target: T5, IKZF2 (Homo sapiens, UniProt Q96SW2+Q9UKS7); test: Western-blot assay of substrate protein degradation in hPBMCs, IKZF2; assay type: cell-based; details: 24 hours of compound treatment, compounds tested at 50 nM and 500 nM (concentration of the table not stated)
T5 construct: endogenous in cells; host or cells: hPBMCs (Milecell Biotechnologies)
T5 sequence (Q9UKS7 whole entry): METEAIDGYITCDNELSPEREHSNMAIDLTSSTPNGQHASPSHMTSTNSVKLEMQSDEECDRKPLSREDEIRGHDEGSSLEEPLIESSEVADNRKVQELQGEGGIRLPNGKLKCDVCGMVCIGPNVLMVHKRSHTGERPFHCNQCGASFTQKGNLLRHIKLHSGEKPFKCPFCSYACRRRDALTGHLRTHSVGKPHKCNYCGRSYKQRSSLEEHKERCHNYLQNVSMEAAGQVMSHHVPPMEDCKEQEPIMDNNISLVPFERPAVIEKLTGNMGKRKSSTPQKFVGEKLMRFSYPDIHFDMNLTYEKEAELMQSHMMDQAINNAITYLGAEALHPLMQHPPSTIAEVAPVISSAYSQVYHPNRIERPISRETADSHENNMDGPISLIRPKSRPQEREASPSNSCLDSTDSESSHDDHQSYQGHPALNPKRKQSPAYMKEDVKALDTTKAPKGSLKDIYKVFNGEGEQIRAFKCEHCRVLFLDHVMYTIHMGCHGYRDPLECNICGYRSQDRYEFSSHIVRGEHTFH
T5 sequence (Q96SW2 whole entry): as the sequence (Q96SW2 whole entry) above
T5 sequence (Q16531 whole entry partner): as the sequence (Q16531 whole entry partner) above

[7] = target: T6, IKZF1 (Homo sapiens, UniProt Q13422+Q96SW2); test: Western-blot assay of substrate protein degradation in hPBMCs, IKZF1; assay type: cell-based; details: 24 hours of compound treatment, compounds tested at 50 nM and 500 nM (concentration of the table not stated)
T6 construct: endogenous in cells; host or cells: hPBMCs (Milecell Biotechnologies)
T6 sequence (Q13422 whole entry): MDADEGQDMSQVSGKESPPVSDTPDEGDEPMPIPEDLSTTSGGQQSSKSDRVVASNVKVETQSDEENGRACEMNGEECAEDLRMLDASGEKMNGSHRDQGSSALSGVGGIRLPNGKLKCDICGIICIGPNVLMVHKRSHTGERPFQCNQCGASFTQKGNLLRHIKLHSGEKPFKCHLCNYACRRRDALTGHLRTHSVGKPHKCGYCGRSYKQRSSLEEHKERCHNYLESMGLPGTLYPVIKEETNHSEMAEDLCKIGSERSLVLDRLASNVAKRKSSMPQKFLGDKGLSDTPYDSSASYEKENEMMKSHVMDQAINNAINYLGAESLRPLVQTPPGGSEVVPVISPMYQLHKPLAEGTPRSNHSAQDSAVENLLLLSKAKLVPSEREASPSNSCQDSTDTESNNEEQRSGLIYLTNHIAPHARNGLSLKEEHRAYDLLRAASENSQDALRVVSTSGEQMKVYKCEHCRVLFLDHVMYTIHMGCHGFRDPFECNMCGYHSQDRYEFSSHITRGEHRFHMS
T6 sequence (Q96SW2 whole entry): as the sequence (Q96SW2 whole entry) above
T6 sequence (Q16531 whole entry partner): as the sequence (Q16531 whole entry partner) above

[8] = target: T7, WEE1 (Homo sapiens, UniProt P30291+Q96SW2); test: Western-blot assay of substrate protein degradation in hPBMCs, WEE1; assay type: cell-based; details: 24 hours of compound treatment, compounds tested at 50 nM and 500 nM (concentration of the table not stated)
T7 construct: endogenous in cells; host or cells: hPBMCs (Milecell Biotechnologies)

[9] = tested on: Jurkat; test: Tumor cell proliferation inhibition (CellTiter-Meiluncell Luminescent Cell Viability Assay), Jurkat; details: Homo sapiens, read-out: inhibitory activity (IC50, nM) against tumor cells proliferation, Jurkat
[10] = tested on: NCI-H1975; test: Tumor cell proliferation inhibition (CellTiter-Meiluncell Luminescent Cell Viability Assay), NCI-H1975; details: Homo sapiens, NCI-H1975, read-out: inhibitory activity (IC50, nM) against tumor cells proliferation, H1975
[11] = tested on: TMD8; test: Tumor cell proliferation inhibition (CellTiter-Meiluncell Luminescent Cell Viability Assay), TMD8; details: Homo sapiens, TMD8, read-out: inhibitory activity (IC50, nM) against tumor cells proliferation, TMD8

T1 sequence (Q96SW2 whole entry): as the sequence (Q96SW2 whole entry) above

## Cc1nc(C2=CCN(Cc3ccc4c(c3)CN(C3CCC(=O)NC3=O)C4=O)CC2)c2c3c(sc2n1)CCCC3 (stereo not shown) [GT-04863, 3-(5-((4-(2-methyl-5,6,7,8-tetrahydrobenzo[4,5]thieno[2,3-d]pyrimidin-4-yl)-3,6-dihydropyridin-1 (2H)-yl)methyl)-1-oxoisoindolin-2-yl)piperidine-2,6-dione]
[1]
  IC50: < 500 nM
[2]
  CK1a substrate protein remaining %: A (0% ≤ substrate protein remaining % ≤ 80%)
[3]
  IC50: 10 to 50 nM
[4]
  GSPT1 substrate protein remaining %: A (0% ≤ substrate protein remaining % ≤ 80%)
[5]
  IKZF3 substrate protein remaining %: A (0% ≤ substrate protein remaining % ≤ 80%)
[6]
  IKZF2 substrate protein remaining %: A (0% ≤ substrate protein remaining % ≤ 80%)
[7]
  IKZF 1 substrate protein remaining %: A (0% ≤ substrate protein remaining % ≤ 80%)
[8]
  Weel substrate protein remaining %: A (0% ≤ substrate protein remaining % ≤ 80%)

## O=C1CCC(N2Cc3cc(CN4C[C@@H]5C[C@H]4CN5c4cccc(Cl)c4Cl)ccc3C2=O)C(=O)N1 (stereo partly drawn) [GT-04898, 3-(5-(((1S,4S)-5-(2,3-dichlorophenyl)-2,5-diazabicyclo[2.2.1]heptan-2-yl)methyl)-1-oxoisoindolin-2-yl)piperidine-2,6-dione]
[1]
  IC50: < 500 nM
[2]
  CK1a substrate protein remaining %: B (80%< substrate protein remaining %≤ 100%)
[3]
  IC50: 5 to 10 nM
[4]
  GSPT1 substrate protein remaining %: A (0% ≤ substrate protein remaining % ≤ 80%)
[5]
  IKZF3 substrate protein remaining %: A (0% ≤ substrate protein remaining % ≤ 80%)
[6]
  IKZF2 substrate protein remaining %: A (0% ≤ substrate protein remaining % ≤ 80%)
[7]
  IKZF 1 substrate protein remaining %: A (0% ≤ substrate protein remaining % ≤ 80%)
[8]
  Weel substrate protein remaining %: B (80%< substrate protein remaining %≤ 100%)

## Cc1nc(N2CCN(Cc3ccc4c(c3)CN(C3CCC(=O)NC3=O)C4=O)CC2)c2c3c(sc2n1)CCCC3 (stereo not shown) [GT-04900, 3-(5-((4-(2-methyl-5,6,7,8-tetrahydrobenzo[4,5]thieno[2,3-d]pyrimidin-4-yl)piperazin-1-yl)methyl)-1-oxoisoindolin-2-yl)piperidine-2,6-dione]
[1]
  IC50: < 500 nM
[2]
  CK1a substrate protein remaining %: A (0% ≤ substrate protein remaining % ≤ 80%)
[3]
  IC50: 10 to 50 nM
[4]
  GSPT1 substrate protein remaining %: B (80%< substrate protein remaining %≤ 100%)
[5]
  IKZF3 substrate protein remaining %: A (0% ≤ substrate protein remaining % ≤ 80%)
[6]
  IKZF2 substrate protein remaining %: A (0% ≤ substrate protein remaining % ≤ 80%)
[7]
  IKZF 1 substrate protein remaining %: A (0% ≤ substrate protein remaining % ≤ 80%)
[8]
  Weel substrate protein remaining %: B (80%< substrate protein remaining %≤ 100%)

## O=C1CCC(N2Cc3cc(CN4CCC(C5CCOc6cc(F)ccc65)CC4)ccc3C2=O)C(=O)N1 (stereo not shown) [GT-04901, 3-(5-((4-(7-fluorochroman-4-yl)piperidin-1-yl)methyl)-1-oxoisoindolin-2-yl)piperidine-2,6-dione]
[1]
  IC50: < 500 nM
[2]
  CK1a substrate protein remaining %: B (80%< substrate protein remaining %≤ 100%)
[3]
  IC50: 10 to 50 nM
[4]
  GSPT1 substrate protein remaining %: B (80%< substrate protein remaining %≤ 100%)
[5]
  IKZF3 substrate protein remaining %: A (0% ≤ substrate protein remaining % ≤ 80%)
[6]
  IKZF2 substrate protein remaining %: A (0% ≤ substrate protein remaining % ≤ 80%)
[7]
  IKZF 1 substrate protein remaining %: A (0% ≤ substrate protein remaining % ≤ 80%)
[8]
  Weel substrate protein remaining %: B (80%< substrate protein remaining %≤ 100%)

## O=C1CCC(N2Cc3cc(CN4CCN(c5nc(N6CCOCC6)nc6ccsc56)CC4)ccc3C2=O)C(=O)N1 (stereo not shown) [GT-04903, 3-(5-((4-(2-morpholinothieno[3,2-d]pyrimidin-4-yl)piperazin-1-yl)methyl)-1-oxoisoindolin-2-yl)piperidine-2,6-dione]
[1]
  IC50: < 500 nM
[2]
  CK1a substrate protein remaining %: A (0% ≤ substrate protein remaining % ≤ 80%)
[3]
  IC50: 10 to 50 nM
[4]
  GSPT1 substrate protein remaining %: A (0% ≤ substrate protein remaining % ≤ 80%)
[5]
  IKZF3 substrate protein remaining %: A (0% ≤ substrate protein remaining % ≤ 80%)
[6]
  IKZF2 substrate protein remaining %: A (0% ≤ substrate protein remaining % ≤ 80%)
[7]
  IKZF 1 substrate protein remaining %: B (80%< substrate protein remaining %≤ 100%)
[8]
  Weel substrate protein remaining %: B (80%< substrate protein remaining %≤ 100%)

## O=C1CCC(N2Cc3cc(CN4CCC(n5cnc6cc(F)ccc65)CC4)ccc3C2=O)C(=O)N1 (stereo not shown) [GT-04905, 3-(5-((4-(5-fluoro-1H-benzo[d]imidazol-1-yl)piperidin-1-yl)methyl)-1-oxoisoindolin-2-yl)piperidine-2,6-dione]
[9]
  IC50: 100 to 500 nM
[1]
  IC50: < 500 nM
[2]
  CK1a substrate protein remaining %: B (80%< substrate protein remaining %≤ 100%)
[10]
  IC50: 100 to 500 nM
[3]
  IC50: 1 to 5 nM
[4]
  GSPT1 substrate protein remaining %: A (0% ≤ substrate protein remaining % ≤ 80%)
[5]
  IKZF3 substrate protein remaining %: A (0% ≤ substrate protein remaining % ≤ 80%)
[6]
  IKZF2 substrate protein remaining %: A (0% ≤ substrate protein remaining % ≤ 80%)
[7]
  IKZF 1 substrate protein remaining %: B (80%< substrate protein remaining %≤ 100%)
[8]
  Weel substrate protein remaining %: B (80%< substrate protein remaining %≤ 100%)

## O=C1CCC(N2Cc3cc(CN4CCC(c5noc6ccccc56)CC4)ccc3C2=O)C(=O)N1 (stereo not shown) [GT-04907, 3-(5-((4-(benzo[d]isoxazol-3-yl)piperidin-1-yl)methyl)-1-oxoisoindolin-2-yl)piperidine-2,6-dione]
[9]
  IC50: 50 to 100 nM
[1]
  IC50: < 500 nM
[2]
  CK1a substrate protein remaining %: B (80%< substrate protein remaining %≤ 100%)
[10]
  IC50: 50 to 100 nM
[3]
  IC50: 1 to 5 nM
[4]
  GSPT1 substrate protein remaining %: A (0% ≤ substrate protein remaining % ≤ 80%)
[5]
  IKZF3 substrate protein remaining %: A (0% ≤ substrate protein remaining % ≤ 80%)
[6]
  IKZF2 substrate protein remaining %: A (0% ≤ substrate protein remaining % ≤ 80%)
[7]
  IKZF 1 substrate protein remaining %: A (0% ≤ substrate protein remaining % ≤ 80%)
[8]
  Weel substrate protein remaining %: A (0% ≤ substrate protein remaining % ≤ 80%)

## O=C1CCC(N2C(=O)c3ccc(CN4CCN(c5cccc6sccc56)CC4)cc3C2=O)C(=O)N1 (stereo not shown) [GT-04915, 5-((4-(benzo[b]thiophen-4-yl)piperazin-1-yl)methyl)-2-(2,6-dioxopiperidin-3-yl)isoindoline-1,3-dione]
[9]
  IC50: 100 to 500 nM
[2]
  CK1a substrate protein remaining %: A (0% ≤ substrate protein remaining % ≤ 80%)
[10]
  IC50: 500 to 1000 nM
[3]
  IC50: 100 to 500 nM
[4]
  GSPT1 substrate protein remaining %: A (0% ≤ substrate protein remaining % ≤ 80%)
[5]
  IKZF3 substrate protein remaining %: A (0% ≤ substrate protein remaining % ≤ 80%)
[6]
  IKZF2 substrate protein remaining %: A (0% ≤ substrate protein remaining % ≤ 80%)
[7]
  IKZF 1 substrate protein remaining %: A (0% ≤ substrate protein remaining % ≤ 80%)
[8]
  Weel substrate protein remaining %: A (0% ≤ substrate protein remaining % ≤ 80%)

## O=C1CCC(N2Cc3cc(CN4CC5CCC4CN5c4cccc(Cl)c4Cl)ccc3C2=O)C(=O)N1 (stereo not shown) [GT-04930, 3-(5-((5-(2,3-dichlorophenyl)-2,5-diazabicyclo[2.2.2]octan-2-yl)methyl)-1-oxoisoindolin-2-yl)piperidine-2,6-dione]
[1]
  IC50: < 500 nM
[2]
  CK1a substrate protein remaining %: B (80%< substrate protein remaining %≤ 100%)
[3]
  IC50: 10 to 50 nM
[4]
  GSPT1 substrate protein remaining %: A (0% ≤ substrate protein remaining % ≤ 80%)
[5]
  IKZF3 substrate protein remaining %: A (0% ≤ substrate protein remaining % ≤ 80%)
[6]
  IKZF2 substrate protein remaining %: A (0% ≤ substrate protein remaining % ≤ 80%)
[7]
  IKZF 1 substrate protein remaining %: A (0% ≤ substrate protein remaining % ≤ 80%)
[8]
  Weel substrate protein remaining %: A (0% ≤ substrate protein remaining % ≤ 80%)

## Cc1nc(C2=CCN(Cc3ccc4c(c3)CN(C3CCC(=O)NC3=O)C4=O)CC2)c2c3c(sc2n1)CCC3 (stereo not shown) [GT-05211, 3-(5-((4-(2-methyl-6,7-dihydro-5H-cyclopenta[4,5]thieno[2,3-d]pyrimidin-4-yl)-3,6-dihydropyridin-1(2H)-yl)methyl)-1-oxoisoindolin-2-yl)piperidine-2,6-dione]
[1]
  IC50: < 500 nM
[2]
  CK1a substrate protein remaining %: A (0% ≤ substrate protein remaining % ≤ 80%)
[3]
  IC50: 50 to 100 nM
[4]
  GSPT1 substrate protein remaining %: A (0% ≤ substrate protein remaining % ≤ 80%)
[5]
  IKZF3 substrate protein remaining %: A (0% ≤ substrate protein remaining % ≤ 80%)
[6]
  IKZF2 substrate protein remaining %: A (0% ≤ substrate protein remaining % ≤ 80%)
[7]
  IKZF 1 substrate protein remaining %: A (0% ≤ substrate protein remaining % ≤ 80%)
[8]
  Weel substrate protein remaining %: A (0% ≤ substrate protein remaining % ≤ 80%)

## O=C1CCC(N2Cc3cc(CN4CCN(c5n[nH]c6cc(F)ccc56)CC4)ccc3C2=O)C(=O)N1 (stereo not shown) [GT-05264, 3-(5-((4-(6-fluoro-1H-indazol-3-yl)piperazin-1-yl)methyl)-1-oxoisoindolin-2-yl)piperidine-2,6-dione]
[11]
  IC50: 10 to 50 nM
[1]
  IC50: 500 to 1000 nM
[2]
  CK1a substrate protein remaining %: A (0% ≤ substrate protein remaining % ≤ 80%)
[3]
  IC50: 1 to 5 nM
[4]
  GSPT1 substrate protein remaining %: A (0% ≤ substrate protein remaining % ≤ 80%)
[5]
  IKZF3 substrate protein remaining %: A (0% ≤ substrate protein remaining % ≤ 80%)
[6]
  IKZF2 substrate protein remaining %: A (0% ≤ substrate protein remaining % ≤ 80%)
[7]
  IKZF 1 substrate protein remaining %: A (0% ≤ substrate protein remaining % ≤ 80%)
[8]
  Weel substrate protein remaining %: A (0% ≤ substrate protein remaining % ≤ 80%)
